Reference: patent publication US9340577B2, “HLA binding motifs and peptides and their uses” (priority 1992, dated 2016)
No end group written: not given here.

Tests used:
Assay in all cases: biochemical
Format in all cases: binding
A*0203 = A*0203 (Homo sapiens, UniProt P04439, A173T/D140Y/D185E/D98H/E277Q/G131W/G231S/I119V/I121R/I166T/I218V/L180W/L300P/L318F/N151K/N90K/P208A/P217A/Q86G/Q94H/R138H/R169H/T345S)
A*6802 = A*6802 (Homo sapiens, UniProt P04439, A269V/D140Y/D185E/E176V/E277Q/E87N/F33Y/G231S/I121R/I166T/I218V/L180W/L300P/L318F/N151K/P208A/P217A/Q86R/R138H/R169H/S129P/T345S/V36M)
HLA-A*0201 (HLA-A2.1) = HLA-A*0201 (HLA-A2.1) (Homo sapiens, UniProt P04439, D140Y/D185E/D98H/E176V/E277Q/G131W/G231S/I119V/I121R/I166T/I218V/L300P/L318F/N151K/N90K/P208A/P217A/Q86G/Q94H/R138H/R169H/T345S)
A*0202 = A*0202 (Homo sapiens, UniProt P04439, D140Y/D185E/D98H/E176V/E277Q/G131W/G231S/I119L/I121R/I166T/I218V/L180W/L300P/L318F/N151K/N90K/P208A/P217A/Q67R/Q86G/Q94H/R138H/R169H/T345S)
A*0206 = A*0206 (Homo sapiens, UniProt P04439, D140Y/D185E/D98H/E176V/E277Q/F33Y/G131W/G231S/I119V/I121R/I166T/I218V/L300P/L318F/N151K/N90K/P208A/P217A/Q86G/Q94H/R138H/R169H/T345S)

Compound | IC50 (A*0203) [nM] | IC50 (A*6802) [nM] | IC50 (HLA-A*0201 (HLA-A2.1)) [nM] | IC50 (A*0202) [nM] | IC50 (A*0206) [nM]
VLAEAMSKA [Peptide 1539.07] | 7.6 | 4580 | 69 | 3.4 | –
TVELFIPNITV [Peptide 9013.0300] | > 20000 | 193 | 8210 | – | 1640
CC[C@H](C)[C@H](NC(=O)[C@@H](NC(=O)[C@H](CC(C)C)NC(=O)[C@@H](N)CS)[C@@H](C)O)C(=O)N[C@@H](Cc1c[nH]cn1)C(=O)N[C@@H](Cc1ccc(O)cc1)C(=O)N[C@@H](CC(N)=O)C(=O)N[C@@H](Cc1ccc(O)cc1)C(=O)N[C@H](C(=O)O)C(C)C [Peptide 1323.07] | 65 | 640 | 270 | 216 | –
ILIGVLVGVAL [Peptide 9013.0347] | 1010 | > 20000 | 1520 | – | 120
ILNDTGFYT [Peptide 9013.0036] | – | > 20000 | 213 | 14 | 3810
KLTPLCVIL [Peptide 1516.15] | 968 | > 20000 | 356 | 74 | –
VLFTCEPET [Peptide 9013.0045] | 502 | > 20000 | 2540 | – | > 20000
WQRLLLTASV [Peptide 9013.0115] | 36 | > 20000 | 5110 | – | 2230
VAWDSVYYV [Peptide 1593.57] | – | 48 | 4.4 | 35 | 3.3
TLGIMIGVL [Peptide 9013.0108] | 1700 | > 20000 | 7420 | – | 9060
GVNLSLSCHAV [Peptide 9013.0311] | 2590 | 947 | 2090 | 63 | –
GLNLSLSCHAA [Peptide 9013.0312] | – | > 20000 | 1420 | 47 | > 20000
VLYGPDAPV [Peptide 9013.0052] | 19 | 3260 | 48 | 2.4 | –
LLFWNPPTT [Peptide 9013.0007] | 4.3 | > 20000 | 11 | 15 | –
QQHTQVLFV [Peptide 9013.0102] | 80 | > 20000 | 2100 | 1420 | –
ILNDTGFYTL [Peptide 9013.0150] | 59 | 11300 | 152 | 2.1 | –
VAWDSVYYM [Peptide 1578.46] | 1330 | 5150 | – | 603 | –
WLNGQSLPV [Peptide 9013.0090] | 6.4 | – | – | 8.6 | –
FLDAFKKFL [Peptide 1578.31] | – | > 20000 | 158 | 25 | 420
RMLQQLLFT [Peptide 1525.17] | 493 | – | – | 1870 | –
TLELFIPNI [Peptide 9013.0060] | 398 | – | 29 | – | 84

Compound | IC50 (A*0203) [nM] | IC50 (A*6802) [nM] | IC50 (HLA-A*0201 (HLA-A2.1)) [nM] | IC50 (A*0202) [nM] | IC50 (A*0206) [nM]
FLGAFKKFL [Peptide 1578.22] | – | > 20000 | 5840 | 10 | 11800
AIFGVNPTI [Peptide 86.0178] | 324 | 3540 | 1820 | 13 | –
KLMSNLLSI [Peptide 1578.21] | – | > 20000 | 16 | 2.7 | 34
FLKGCIISYV [Peptide 1578.43] | 2 | 795 | 341 | 0.85 | –
ILYPNASLL [Peptide 9013.0030] | 4.2 | 14700 | 130 | 1.8 | –
SLLTFWNPPV [Peptide 9013.0118] | 159 | 24 | 208 | 76 | –
SLACSWGMVV [Peptide 1578.02] | 8.5 | – | 805 | 22 | –
RILQQPLFI [Peptide 1545.03] | – | > 20000 | 140 | 9910 | 872
YVCGIQNSVSV [Peptide 9013.0337] | 159 | – | – | – | 58
LQLSNDNRV [Peptide 9013.0072] | > 20000 | > 20000 | > 20000 | 1700 | –
KLITVSAEL [Peptide 9013.0084] | 27 | > 20000 | 71 | 3.3 | –
MLGVLVGVALI [Peptide 9013.0349] | – | 8790 | 4960 | 432 | 4730
RLYVCGIQNSV [Peptide 9013.0335] | 24 | > 20000 | 170 | 6.3 | –
GLMIGVLVGVA [Peptide 9013.0345] | – | > 20000 | 2190 | 39 | 3300
IQNDTGFYT [Peptide 9013.0034] | – | > 20000 | > 20000 | 3740 | 474
KLLSKLLCV [Peptide 1578.03] | 36 | > 20000 | 55 | 68 | –
YACFVSNLAV [Peptide 9013.0248] | – | 95 | 1390 | 754 | 71
VLFTCEPEA [Peptide 9013.0089] | – | > 20000 | 240 | 70 | 4570
NLAEGKEVLLL [Peptide 9013.0271] | – | > 20000 | 7590 | 18 | > 20000
LLQQYCLYL [Peptide 1578.01] | 17 | – | 224 | 11 | –
TVQDVSLEV [Peptide 1593.55] | 56 | 15 | – | 483 | –

Compound | IC50 (A*0203) [nM] | IC50 (A*6802) [nM] | IC50 (HLA-A*0201 (HLA-A2.1)) [nM] | IC50 (A*0202) [nM] | IC50 (A*0206) [nM]
CC[C@H](C)[C@H](NC(=O)CN)C(=O)N[C@@H](CCSC)C(=O)N[C@H](C(=O)NCC(=O)N[C@H](C(=O)N[C@@H](CC(C)C)C(=O)N[C@H](C(=O)NCC(=O)N[C@H](C(=O)N[C@H](C(=O)O)C(C)C)C(C)C)C(C)C)C(C)C)[C@@H](C)CC [Peptide 9013.0344] | 82 | – | 563 | – | 912
TQVLFIAKV [Peptide 9013.0105] | 27 | – | 1040 | – | 46
RLENAILFTV [Peptide 1593.60] | 160 | 15800 | – | 24 | –
KLTQLCVTL [Peptide 1537.02] | – | > 20000 | 24 | 2.7 | 131
ILAEAMSKA [Peptide 1516.09] | 2.8 | 2650 | 72 | 3.5 | –
YIDDYLRNL [Peptide 1578.39] | 380 | > 20000 | – | 27 | –
TTVTTITVYV [Peptide 9013.0192] | 326 | 17 | 1040 | 21 | –
VLEGKEVLL [Peptide 9013.0019] | – | > 20000 | 2910 | 18 | > 20000
TLESTPFNV [Peptide 9013.0012] | 221 | 241 | 216 | 19 | –
KLTSLCVTL [Peptide 1537.03] | 91 | > 20000 | 91 | 29 | –
KLLEKLLCI [Peptide 1578.15] | 15 | > 20000 | – | – | 51
LLTFWNPPTTV [Peptide 9013.0259] | 58 | 7540 | 762 | 67 | –
VQWAYDHDI [Peptide 86.0205] | > 20000 | > 20000 | 6900 | 6840 | –
MTANPPIPV [Peptide 1539.01] | 2.5 | 2 | 2.3 | 7.2 | –
RLIIGYVIGT [Peptide 9013.0140] | 636 | 14600 | 1870 | – | –
LTIESTPFNVV [Peptide 9013.0267] | – | 123 | 1090 | 188 | 77
TTQDVSLEV [Peptide 1593.54] | – | 9 | 1340 | 2350 | 674
VVWDSIYYI [Peptide 1578.53] | – | 52 | 13 | 39 | 11
ILQNDTGFYT [Peptide 9013.0147] | – | > 20000 | 902 | 187 | 11100
VQWAYDNDV [Peptide 86.0190] | – | 3590 | 4430 | 89 | 428
